25 compounds from patent US12454529B2, “Piperazine cyclic ureas” (SIRONAX LTD., priority 2020, dated 2025) can be followed below.

Structures are written as SMILES. Read-outs that look alike come from different tables or passages of the source.

For orientation: EC50 means the concentration giving half of the maximal effect.

The test system of the assay is HT-29 cells. Briefly: HT-29 cell necrosis/necroptosis inhibition (TNF-α + SMAC mimetic + zVAD-FMK; CellTiter-Glo cell viability). The following applies: Homo sapiens. The assay is classed as cell-based. The method, boiled down:
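Necroptosis was driven by TNF-α 10 ng/ml plus SMAC mimetic 6 μM and zVAD-FMK 10 μM in serum-free medium, with compounds as a 10-point threefold titration. After 20 h at 37 °C, ATP-based luminescence was read; EC50 values are geometric means of duplicate curves.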
A general note: Cellular ATP, detected with luciferase, serves as a proxy for viable cell number.

Setting [1] is: HT-29 cells, TNF-α 10 ng/ml + SMAC mimetic 6 μM + zVAD-FMK 10 μM, 20 hours, geometric mean, 10 points in duplicate, read-out: EC50 (Cell activity; Necrosis/Necroptosis Inhibitory Activity, Compounds 1-142).
Where [2] appears, read: HT-29 cells, TNF-α 10 ng/ml + SMAC mimetic 6 μM + zVAD-FMK 10 μM, 20 hours, geometric mean, 10 points in duplicate, read-out: EC50 (Cell activity; Necrosis/Necroptosis Inhibitory Activity, Compounds 143-323).

As to `Cn1nc(CO)nc1-c1nc(N2CCN(C(=O)N3N=CC[C@H]3c3cc(F)cc(C#N)c3)CC2)ncc1F` [Compound 72, (S)-3-fluoro-5-(1-(4-(5-fluoro-4-(3-(hydroxymethyl)-1-methyl-1H-1,2,4-triazol-5-yl)pyrimidin-2-yl)piperazine-1-carbonyl)-4,5-dihydro-1H-pyrazol-5-yl)benzonitrile], under setting [1], the half-maximal effective concentration (EC50) was in the range of 0.1 to 100 nM.
Regarding `Cc1cnc(C2CC=NN2C(=O)N2CCN(c3nc(-c4c(C)cnn4C)ncc3F)CC2)s1` (stereo not shown) [Compound 145, (4-(2-(1,4-dimethyl-1H-pyrazol-5-yl)-5-fluoropyrimidin-4-yl)piperazin-1-yl)(5-(5-methylthiazol-2-yl)-4,5-dihydro-1H-pyrazol-1-yl)methanone], the EC50 under setting [2] was in the range of 0.1 to 100 nM.
On the same count and under the same terms, then `Cc1nc(C(F)(F)F)nn1-c1nc(N2CCN(C(=O)N3N=CC[C@H]3c3cc(F)cc(C#N)c3)CC2)ncc1F` [Compound 207, (S)-3-fluoro-5-(1-(4-(5-fluoro-4-(5-methyl-3-(trifluoromethyl)-1H-1,2,4-triazol-1-yl)pyrimidin-2-yl)piperazine-1-carbonyl)-4,5-dihydro-1H-pyrazol-5-yl)benzonitrile], with 0.1 to 100 nM; and `Cc1csc(C2CC=NN2C(=O)N2CCN(c3nc(-c4c(C)cnn4C)ccc3F)CC2)n1` (stereo not shown) [Compound 299, (4-(6-(1,4-dimethyl-1H-pyrazol-5-yl)-3-fluoropyridin-2-yl)piperazinyl)(5-(4-methylthiazol-2-yl)-4,5-dihydro-1H-pyrazol-1-yl)methanone], with 0.1 to 100 nM.
With `Cn1nccc1-c1nc(N2CCN(C(=O)N3N=CC[C@H]3c3cc(F)cc(C#N)c3)CC2)ncc1F` [Compound 69, (S)-3-fluoro-5-(1-(4-(5-fluoro-4-(1-methyl-1H-pyrazol-5-yl)pyrimidin-2-yl)piperazine-1-carbonyl)-4,5-dihydro-1H-pyrazol-5-yl)benzonitrile], the EC50 under setting [1] lay in the range of 0.1 to 100 nM.
Turning to `CCn1cnn(-c2nc(N3CCN(C(=O)N4N=CC[C@H]4c4cc(F)cc(F)c4)CC3)ncc2F)c1=O` [Compound 199, (S)-2-(2-(4-(5-(3,5-difluorophenyl)-4,5-dihydro-1H-pyrazole-1-carbonyl)piperazin-1-yl)-5-fluoropyrimidin-4-yl)-4-ethyl-2,4-dihydro-3H-1,2,4-triazol-3-one], under setting [2], the EC50 lay in the range of 0.1 to 100 nM.
Still for that read-out and setting: then `Cc1nc(C)n(-c2nc(N3CCN(C(=O)N4N=CCC4c4csc(C)n4)CC3)ncc2F)n1` (stereo not shown) [Compound 213, (4-(4-(3,5-dimethyl-1H-1,2,4-triazol-1-yl)-5-fluoropyrimidin-2-yl)piperazin-1-yl)(5-(2-methylthiazol-4-yl)-4,5-dihydro-1H-pyrazol-1-yl)methanone], with 100 to 1000 nM.
On to `Cc1n[nH]c(C)c1-c1nc(N2CCN(C(=O)N3N=CC[C@H]3c3cc(F)cc(F)c3)CC2)ncc1F` [Compound 93, (S)-(5-(3,5-difluorophenyl)-4,5-dihydro-1H-pyrazol-1-yl)(4-(4-(3,5-dimethyl-1H-pyrazol-4-yl)-5-fluoropyrimidin-2-yl)piperazin-1-yl)methanone], for which, under setting [1], the EC50 fell in the range of 0.1 to 100 nM.
Regarding `Cc1nc(C)n(-c2ncc(F)c(N3CCN(C(=O)N4N=CC[C@H]4c4cc(F)cc(C#N)c4)CC3)n2)n1` [Compound 258, (S)-3-(1-(4-(2-(3,5-dimethyl-1H-1,2,4-triazol-1-yl)-5-fluoropyrimidin-4-yl)piperazine-1-carbonyl)-4,5-dihydro-1H-pyrazol-5-yl)-5-fluorobenzonitrile], the EC50 under setting [2] fell in the range of 0.1 to 100 nM.
Regarding `NC(=O)c1cnn(-c2ccnc(N3CCN(C(=O)N4N=CC[C@H]4c4ccccc4)CC3)n2)c1` [Compound 11, (S)-1-(2-(4-(5-phenyl-4,5-dihydro-1H-pyrazole-1-carbonyl)piperazin-1-yl)pyrimidin-4-yl)-1H-pyrazole-4-carboxamide], the EC50 under setting [1] lay within 0.1 to 100 nM.
`Cc1nc(C)n(-c2nc(N3CCN(C(=O)N4N=CCC4c4cc(C#N)cc(F)c4F)CC3)ncc2F)n1` (stereo not shown) [Compound 238, 3-(1-(4-(4-(3,5-dimethyl-1H-1,2,4-triazol-1-yl)-5-fluoropyrimidin-2-yl)piperazine-1-carbonyl)-4,5-dihydro-1H-pyrazol-5-yl)-4,5-difluorobenzonitrile]: the EC50 under setting [2] lay in the range of 0.1 to 100 nM.
Take `Cc1nn(CCC2CCOCC2)c(C)c1-c1nc(N2CCN(C(=O)N3N=CC[C@H]3c3cc(F)cc(C#N)c3)CC2)ncc1F` [Compound 138, (S)-3-(1-(4-(4-(3,5-dimethyl-1-(2-(tetrahydro-2H-pyran-4-yl)ethyl)-1H-pyrazol-4-yl)-5-fluoropyrimidin-2-yl)piperazine-1-carbonyl)-4,5-dihydro-1H-pyrazol-5-yl)-5-fluorobenzonitrile]: the concentration giving a half-maximal response (EC50) under setting [1] was in the range of 0.1 to 100 nM.
Consider `Cc1nnc(-c2nc(N3CCN(C(=O)N4N=CC[C@H]4c4cc(F)cc(C#N)c4)CC3)ncc2F)o1` [Compound 188, (S)-3-fluoro-5-(1-(4-(5-fluoro-4-(5-methyl-1,3,4-oxadiazol-2-yl)pyrimidin-2-yl)piperazine-1-carbonyl)-4,5-dihydro-1H-pyrazol-5-yl)benzonitrile], for which the EC50 under setting [2] lay within 0.1 to 100 nM.
With `Cn1cccc(-c2nc(N3CCN(C(=O)N4N=CC[C@H]4c4cc(F)cc(F)c4)CC3)ncc2F)c1=O` [Compound 88, (S)-3-(2-(4-(5-(3,5-difluorophenyl)-4,5-dihydro-1H-pyrazole-1-carbonyl)piperazin-1-yl)-5-fluoropyrimidin-4-yl)-1-methylpyridin-2(1H)-one], the EC50 under setting [1] lay in the range of 0.1 to 100 nM.
The same measure, in the same setting: then `Cc1nnc(-c2nc(N3CCN(C(=O)N4N=CC[C@H]4c4cc(F)cc(C#N)c4)CC3)ncc2F)s1` [Compound 64, (S)-3-fluoro-5-(1-(4-(5-fluoro-4-(5-methyl-1,3,4-thiadiazol-2-yl)pyrimidin-2-yl)piperazine-1-carbonyl)-4,5-dihydro-1H-pyrazol-5-yl)benzonitrile], with 0.1 to 100 nM.
For the compound `Cc1cnc(C2CC=NN2C(=O)N2CCN(c3ncc(F)c(-c4cnn(C)n4)n3)CC2)s1` (stereo not shown) [Compound 317, (4-(5-fluoro-4-(2-methyl-2H-1,2,3-triazol-4-yl)pyrimidin-2-yl)piperazin-1-yl)(5-(5-methylthiazol-2-yl)-4,5-dihydro-1H-pyrazol-1-yl)methanone], the EC50 under setting [2] is 100 to 1000 nM.
Same read-out and setting: with `Cc1cnn(C)c1-c1cc(N2CCN(C(=O)N3N=CC[C@H]3c3cc(F)cc(C#N)c3)CC2)c(F)cn1` [Compound 269, (S)-3-(1-(4-(2-(1,4-dimethyl-1H-pyrazol-5-yl)-5-fluoropyridin-4-yl)piperazine-1-carbonyl)-4,5-dihydro-1H-pyrazol-5-yl)-5-fluorobenzonitrile] the figure was 0.1 to 100 nM; with `Cc1nn(-c2cc(N3CCN(C(=O)N4N=CC[C@H]4c4cncc(F)c4)CC3)ncn2)c(C)c1Cl` [Compound 290, (S)-(4-(6-(4-chloro-3,5-dimethyl-1H-pyrazol-1-yl)pyrimidin-4-yl)piperazin-1-yl)(5-(5-fluoropyridin-3-yl)-4,5-dihydro-1H-pyrazol-1-yl)methanone], 0.1 to 100 nM.
For `O=C(N1CCN(c2ncc(F)c(-c3n[nH]nc3I)n2)CC1)N1N=CC[C@H]1c1cc(F)cc(F)c1` [Compound 20, (S)-(5-(3,5-difluorophenyl)-4,5-dihydro-1H-pyrazol-1-yl)(4-(5-fluoro-4-(5-iodo-1H-1,2,3-triazol-4-yl)pyrimidin-2-yl)piperazin-1-yl)methanone], the EC50 under setting [1] lay within 0.1 to 100 nM.
In the case of `Cn1nc(C#N)nc1-c1nc(N2CCN(C(=O)N3N=CCC3c3cncc(F)c3)CC2)ncc1F` (stereo not shown) [Compound 229, 5-(5-fluoro-2-(4-(5-(5-fluoropyridin-3-yl)-4,5-dihydro-1H-pyrazole-1-carbonyl)piperazin-1-yl)pyrimidin-4-yl)-1-methyl-1H-1,2,4-triazole-3-carbonitrile], the EC50 under setting [2] was in the range of 0.1 to 100 nM.
On the same count and under the same terms, then `Cn1nc(CO)nc1-c1ccnc(N2CCN(C(=O)N3N=CC[C@H]3c3cc(F)cc(C#N)c3)CC2)n1` [Compound 171, (S)-3-fluoro-5-(1-(4-(4-(3-(hydroxymethyl)-1-methyl-1H-1,2,4-triazol-5-yl)pyrimidin-2-yl)piperazine-1-carbonyl)-4,5-dihydro-1H-pyrazol-5-yl)benzonitrile], with 0.1 to 100 nM.
As for `CCn1nc(C)c(-c2nc(N3CCN(C(=O)N4N=CC[C@H]4c4cc(F)cc(F)c4)CC3)ncc2F)c1C` [Compound 117, (S)-(5-(3,5-difluorophenyl)-4,5-dihydro-1H-pyrazol-1-yl)(4-(4-(1-ethyl-3,5-dimethyl-1H-pyrazol-4-yl)-5-fluoropyrimidin-2-yl)piperazin-1-yl)methanone], under “HT-29, 20 h, read-out: EC50 (Cell activity; Necrosis/Necroptosis Inhibitory Activity, Compounds 1-142)”, the EC50 fell in the range of 0.1 to 100 nM.
Turning to `Cc1cnc([C@@H]2CC=NN2C(=O)N2CCN(c3ncc(F)c(-n4nc(C#N)nc4C)n3)CC2)s1` [Compound 319, (S)-1-(5-fluoro-2-(4-(5-(5-methylthiazol-2-yl)-4,5-dihydro-1H-pyrazole-1-carbonyl)piperazin-1-yl)pyrimidin-4-yl)-5-methyl-1H-1,2,4-triazole-3-carbonitrile], the EC50 under setting [2] lay in the range of 0.1 to 100 nM.
Still for that read-out and setting: then `Cn1cnnc1-c1nc(N2CCN(C(=O)N3N=CC[C@H]3c3cc(F)cc(C#N)c3)CC2)ncc1F` [Compound 197, (S)-3-fluoro-5-(1-(4-(5-fluoro-4-(4-methyl-4H-1,2,4-triazol-3-yl)pyrimidin-2-yl)piperazine-1-carbonyl)-4,5-dihydro-1H-pyrazol-5-yl)benzonitrile], with 1000 to 10000 nM; and `O=C(N1CCN(c2ncc(F)c(-n3nccc3C(F)(F)F)n2)CC1)N1N=CC[C@H]1c1ccccc1` [Compound 307, (S)-(4-(5-fluoro-4-(5-(trifluoromethyl)-1H-pyrazol-1-yl)pyrimidin-2-yl)piperazin-1-yl)(5-phenyl-4,5-dihydro-1H-pyrazol-1-yl)methanone], with 0.1 to 100 nM.
